According to patent US8710043B2, “TRPM8 antagonists and their use in treatments” (Amgen Inc., priority 2011, dated 2014):

molecular target: T1, human TRPM8 (Homo sapiens, UniProt Q7Z2W7); assay: Luminescence readout assay for measuring intracellular calcium, icilin activation; assay type: cell-based; conditions: CHO cells expressing human TRPM8, aequorin luminescence, 1 μM icilin activation; read-out: hTRPM8 IC50
T1 construct: expressed in transfected cells; host or cells: Chinese hamster ovary (CHO) cells, T-REx tetracycline-inducible system, co-transfected with aequorin
T1 sequence (Q7Z2W7 whole entry): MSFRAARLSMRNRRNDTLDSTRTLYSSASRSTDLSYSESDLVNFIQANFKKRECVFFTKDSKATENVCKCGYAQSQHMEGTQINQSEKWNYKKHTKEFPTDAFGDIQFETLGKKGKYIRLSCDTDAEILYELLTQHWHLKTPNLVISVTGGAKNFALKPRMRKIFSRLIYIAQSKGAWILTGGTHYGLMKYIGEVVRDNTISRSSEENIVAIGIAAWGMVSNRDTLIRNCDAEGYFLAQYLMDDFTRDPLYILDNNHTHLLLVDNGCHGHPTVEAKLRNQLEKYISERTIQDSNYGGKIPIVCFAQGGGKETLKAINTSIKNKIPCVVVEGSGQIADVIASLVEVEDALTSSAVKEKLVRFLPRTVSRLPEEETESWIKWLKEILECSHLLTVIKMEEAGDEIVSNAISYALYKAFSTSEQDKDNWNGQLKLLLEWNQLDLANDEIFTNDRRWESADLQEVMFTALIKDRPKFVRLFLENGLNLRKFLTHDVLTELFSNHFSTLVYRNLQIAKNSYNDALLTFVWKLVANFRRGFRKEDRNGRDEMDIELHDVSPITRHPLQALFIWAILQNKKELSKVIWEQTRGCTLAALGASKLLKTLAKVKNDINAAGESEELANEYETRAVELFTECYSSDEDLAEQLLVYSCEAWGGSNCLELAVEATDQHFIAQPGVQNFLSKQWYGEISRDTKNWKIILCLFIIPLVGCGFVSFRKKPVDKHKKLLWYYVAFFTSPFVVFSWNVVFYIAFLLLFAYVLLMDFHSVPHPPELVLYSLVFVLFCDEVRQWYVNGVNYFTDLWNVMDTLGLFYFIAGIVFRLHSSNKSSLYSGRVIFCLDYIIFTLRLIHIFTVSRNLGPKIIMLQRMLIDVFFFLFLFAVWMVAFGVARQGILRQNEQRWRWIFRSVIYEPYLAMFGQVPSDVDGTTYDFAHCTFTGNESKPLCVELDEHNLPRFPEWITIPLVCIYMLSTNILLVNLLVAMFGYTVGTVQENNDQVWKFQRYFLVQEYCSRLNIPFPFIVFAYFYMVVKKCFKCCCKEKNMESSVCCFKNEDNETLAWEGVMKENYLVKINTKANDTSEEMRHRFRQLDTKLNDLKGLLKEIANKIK
Experimental: Luminescence Readout Assay for Measuring Intracellular Calcium.
A stable Chinese hamster ovary cell line expressing human TRPM8 was generated using tetracycline inducible T-REx™ expression system from Invitrogen, Inc. (Carlsbad, Calif.). […] Twenty four hours before the assay, cells were seeded in 96-well plates and TRPM8 expression was induced with 0.5 μg/mL tetracycline. […] Potential antagonists were added 2.5 min prior to the addition of agonist, 1 μM icilin, 100 μM L-menthol, or 1 min prior to the addition of cold buffer (<10° C.). The luminescence was measured by a CCD camera based FLASH-luminometer built by Amgen, Inc. A cooling device attached to FLASH luminometer was used for cold activation.

IC50 [nM]	Structure (SMILES)
63.5	O=C(N[C@@H](c1ccc(C(F)(F)F)cc1)c1ncccc1C(F)(F)F)c1c[nH]c2ncncc12 [Example 45, (S)-N-((4-(trifluoromethyl)phenyl)(3-(trifluoromethyl)pyridin-2-yl)methyl)-7H-pyrrolo[2,3-d]pyrimidine-5-carboxamide]
12.3	COc1ccc(C(=O)N[C@@H](c2ccc(C(F)(F)F)cc2)c2ncccc2F)cn1 [Example 46, (S)-N-((3-fluoropyridin-2-yl)(4-(trifluoromethyl)phenyl)methyl)-6-methoxynicotinamide]
20.1	COc1ncccc1C(=O)N[C@@H](c1ccc(C(F)(F)F)cc1)c1ncccc1F [Example 47, (S)-N-((3-fluoropyridin-2-yl)(4-(trifluoromethyl)phenyl)methyl)-2-methoxynicotinamide]
21.5	COc1cnccc1C(=O)N[C@@H](c1ccc(C(F)(F)F)cc1)c1ncccc1C(F)(F)F [Example 48, (S)-3-methoxy-N-((4-(trifluoromethyl)phenyl)(3-(trifluoromethyl)pyridin-2-yl)methyl)isonicotinamide]
127	Cn1ccc(C(=O)N[C@@H](c2ccc(C(F)(F)F)cc2)c2ncccc2C(F)(F)F)cc1=O [Example 49, (S)-1-methyl-2-oxo-N-((4-(trifluoromethyl)phenyl)(3-(trifluoromethyl)pyridin-2-yl)methyl)-1,2-dihydropyridine-4-carboxamide]
10.5	Cn1cc(C(=O)N[C@@H](c2ccc(C(F)(F)F)cc2)c2ncccc2C(F)(F)F)ccc1=O [Example 50, (S)-1-methyl-6-oxo-N-((4-(trifluoromethyl)phenyl)(3-(trifluoromethyl)pyridin-2-yl)methyl)-1,6-dihydropyridine-3-carboxamide]
40.1	Cc1ccc(C(=O)N[C@@H](c2ccc(C(F)(F)F)cc2)c2ncccc2F)cn1 [Example 52, (S)-N-((3-fluoropyridin-2-yl)(4-(trifluoromethyl)phenyl)methyl)-6-methylnicotinamide]
45.5	Cc1cc(C(=O)N[C@@H](c2ccc(C(F)(F)F)cc2)c2ncccc2F)ccn1 [Example 53, (S)-N-((3-fluoropyridin-2-yl)(4-(trifluoromethyl)phenyl)methyl)-2-methylisonicotinamide]
23.1	O=C(N[C@@H](c1ccc(C(F)(F)F)cc1)c1ncccc1F)c1c[nH]c2ncccc12 [Example 54, (S)-N-((3-fluoropyridin-2-yl)(4-(trifluoromethyl)phenyl)methyl)-1H-pyrrolo[2,3-b]pyridine-3-carboxamide]
30.4	COc1ccncc1C(=O)N[C@@H](c1ccc(C(F)(F)F)cc1)c1ncccc1C(F)(F)F [Example 55, (S)-4-methoxy-N-((4-(trifluoromethyl)phenyl)(3-(trifluoromethyl)pyridin-2-yl)methyl)nicotinamide]
9.2	O=C1Cc2cc(C(=O)N[C@@H](c3ccc(C(F)(F)F)cc3)c3ncccc3C(F)(F)F)ccc2N1 [Example 56, (S)-2-oxo-N-((4-(trifluoromethyl)phenyl)(3-(trifluoromethyl)pyridin-2-yl)methyl)indoline-5-carboxamide]
63.1	Cc1ncc(C(=O)N[C@@H](c2ccc(C(F)(F)F)cc2)c2ncccc2C(F)(F)F)cn1 [Example 57, (S)-2-methyl-N-((4-(trifluoromethyl)phenyl)(3-(trifluoromethyl)pyridin-2-yl)methyl)pyrimidine-5-carboxamide]
63.9	O=C(N[C@@H](c1ccc(C(F)(F)F)cc1)c1ncccc1C(F)(F)F)c1cncc(O)c1 [Example 58, (S)-5-hydroxy-N-((4-(trifluoromethyl)phenyl)(3-(trifluoromethyl)pyridin-2-yl)methyl)nicotinamide]
41.6	O=C(N[C@@H](c1ccc(C(F)(F)F)cc1)c1ncccc1C(F)(F)F)c1ccc[nH]c1=O [Example 59, (S)-2-oxo-N-((4-(trifluoromethyl)phenyl)(3-(trifluoromethyl)pyridin-2-yl)methyl)-1,2-dihydropyridine-3-carboxamide]
78.4	Cc1ncncc1C(=O)N[C@@H](c1ccc(C(F)(F)F)cc1)c1ncccc1C(F)(F)F [Example 60, (S)-4-methyl-N-((4-(trifluoromethyl)phenyl)(3-(trifluoromethyl)pyridin-2-yl)methyl)pyrimidine-5-carboxamide]
312	O=C(N[C@@H](c1ccc(C(F)(F)F)cc1)c1ncccc1C(F)(F)F)c1cncnc1O [Example 61, (S)-4-hydroxy-N-((4-(trifluoromethyl)phenyl)(3-(trifluoromethyl)pyridin-2-yl)methyl)pyrimidine-5-carboxamide]
172	O=C(N[C@@H](c1ccc(C(F)(F)F)cc1)c1ncccc1C(F)(F)F)c1cc(O)ccn1 [Example 62, (S)-4-hydroxy-N-((4-(trifluoromethyl)phenyl)(3-(trifluoromethyl)pyridin-2-yl)methyl)picolinamide]

IC50 [nM]	Structure (SMILES)
134	O=C(N[C@@H](c1ccc(C(F)(F)F)cc1)c1ncccc1C(F)(F)F)c1cccc(=O)[nH]1 [Example 63, (S)-6-oxo-N-((4-(trifluoromethyl)phenyl)(3-(trifluoromethyl)pyridin-2-yl)methyl)-1,6-dihydropyridine-2-carboxamide]
20	O=C(N[C@@H](c1ccc(C(F)(F)F)cc1)c1ncccc1C(F)(F)F)c1ccc(O)cn1 [Example 64, (S)-5-hydroxy-N-((4-(trifluoromethyl)phenyl)(3-(trifluoromethyl)pyridin-2-yl)methyl)picolinamide]
245	O=C1CCC(C(=O)N[C@@H](c2ccc(C(F)(F)F)cc2)c2ncccc2C(F)(F)F)CN1 (stereo partly drawn) [Example 65, 6-oxo-N-((S)-(4-(trifluoromethyl)phenyl)(3-(trifluoromethyl)pyridin-2-yl)methyl)piperidine-3-carboxamide]
405	O=C(N[C@@H](c1ccc(C(F)(F)F)cc1)c1ncccc1C(F)(F)F)c1cc2cccnc2[nH]1 [Example 66, (S)-N-((4-(trifluoromethyl)phenyl)(3-(trifluoromethyl)pyridin-2-yl)methyl)-1H-pyrrolo[2,3-b]pyridine-2-carboxamide]
40	O=C(N[C@@H](c1ccc(C(F)(F)F)cc1)c1ncccc1C(F)(F)F)c1ccc2cc[nH]c2n1 [Example 67, (S)-N-((4-(trifluoromethyl)phenyl)(3-(trifluoromethyl)pyridin-2-yl)methyl)-1H-pyrrolo[2,3-b]pyridine-6-carboxamide]
12.9	O=C1Cc2ccc(C(=O)N[C@@H](c3ccc(C(F)(F)F)cc3)c3ncccc3C(F)(F)F)cc2N1 [Example 69, (S)-2-oxo-N-((4-(trifluoromethyl)phenyl)(3-(trifluoromethyl)pyridin-2-yl)methyl)indoline-6-carboxamide]
15.2	O=C1Cc2cc(C(=O)N[C@@H](c3ccc(C(F)(F)F)cc3)c3ncccc3F)ccc2N1 [Example 70, (S)-N-((3-fluoropyridin-2-yl)(4-(trifluoromethyl)phenyl)methyl)-2-oxoindoline-5-carboxamide]
9.2	O=C1Cc2ccc(C(=O)N[C@@H](c3ccc(C(F)(F)F)cc3)c3ncccc3F)cc2N1 [Example 71, (S)-N-((3-fluoropyridin-2-yl)(4-(trifluoromethyl)phenyl)methyl)-2-oxoindoline-6-carboxamide]
167	O=C(N[C@@H](c1ccc(C(F)(F)F)cc1)c1ncccc1F)c1ccc[nH]c1=O [Example 72, (S)-N-((3-fluoropyridin-2-yl)(4-(trifluoromethyl)phenyl)methyl)-2-oxo-1,2-dihydropyridine-3-carboxamide]
17	O=C1COc2cc(C(=O)N[C@@H](c3ccc(C(F)(F)F)cc3)c3ncccc3F)ccc2N1 [Example 73, (S)-N-((3-fluoropyridin-2-yl)(4-(trifluoromethyl)phenyl)methyl)-3-oxo-3,4-dihydro-2H-benzo[b][1,4]oxazine-7-carboxamide]
85.3	CNS(=O)(=O)c1ccc(C(=O)N[C@@H](c2ccc(C(F)(F)F)cc2)c2ncccc2F)cc1 [Example 74, (S)-N-((3-fluoropyridin-2-yl)(4-(trifluoromethyl)phenyl)methyl)-4-(N-methylsulfamoyl)benzamide]
39.1	O=C1CNc2cc(C(=O)N[C@@H](c3ccc(C(F)(F)F)cc3)c3ncccc3F)ccc2O1 [Example 75, (S)-N-((3-fluoropyridin-2-yl)(4-(trifluoromethyl)phenyl)methyl)-2-oxo-3,4-dihydro-2H-benzo[b][1,4]oxazine-6-carboxamide]
53	O=C1COc2c(cccc2C(=O)N[C@@H](c2ccc(C(F)(F)F)cc2)c2ncccc2F)N1 [Example 77]
14.8	O=C(N[C@@H](c1ccc(C(F)(F)F)cc1)c1ncccc1F)c1ccc2[nH]c(=O)oc2c1 [Example 78, (S)-N-((3-fluoropyridin-2-yl)(4-(trifluoromethyl)phenyl)methyl)-2-oxo-2,3-dihydrobenzo[d]oxazole-6-carboxamide]
23.1	O=C(N[C@@H](c1ccc(OC(F)(F)F)cc1)c1ncccc1F)c1ccc2[nH]c(=O)oc2c1 [Example 80, (S)-N-((3-fluoropyridin-2-yl)(4-(trifluoromethoxy)phenyl)methyl)-2-oxo-2,3-dihydrobenzo[d]oxazole-6-carboxamide]
24.8	O=C1COc2cc(C(=O)N[C@@H](c3ccc(OC(F)(F)F)cc3)c3ncccc3F)ccc2N1 [Example 81]
17.7	Cc1cccnc1[C@@H](NC(=O)c1ccc(=O)[nH]c1)c1ccc(C(F)(F)F)cc1 [Example 82, (S)-N-((3-methylpyridin-2-yl)(4-(trifluoromethyl)phenyl)methyl)-6-oxo-1,6-dihydropyridine-3-carboxamide 2,2,2-trifluoroacetate]
